What follows are compounds tested against HSD17B13 (Homo sapiens (Human), UniProt Q7Z5P4) (assay: LC/MS estrone detection assay: conversion of estradiol to estrone by HSD17B13). Conditions: 4 μM estradiol, 6 mM NAD+, 30 nM HSD17B13 enzyme (E. coli expressed His-tagged), 2 hours at 26.5° C.
Assay type: biochemical
How it was run: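 His-tagged E. coli-expressed HSD17B13 (30 nM) with 4 μM estradiol and 6 mM NAD+ in 1 M potassium phosphate pH 7.4, 0.5% DMSO, 2 h at 26.5° C. Estrone and estradiol quantified by LC-MS/MS after MeCN quench with D4-estrone internal standard; activity as % of uninhibited enzyme, IC50 by four-parameter fit, duplicates.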

Sequence of HSD17B13 (Q7Z5P4 20-300): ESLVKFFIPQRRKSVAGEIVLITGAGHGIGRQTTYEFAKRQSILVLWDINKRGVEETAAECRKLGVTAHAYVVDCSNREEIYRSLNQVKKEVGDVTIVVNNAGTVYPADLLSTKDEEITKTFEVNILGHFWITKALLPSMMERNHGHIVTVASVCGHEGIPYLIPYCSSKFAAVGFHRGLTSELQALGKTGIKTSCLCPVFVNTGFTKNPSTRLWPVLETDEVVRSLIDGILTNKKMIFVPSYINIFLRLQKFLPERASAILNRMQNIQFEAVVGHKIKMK

| Structure (SMILES) | IC50 |
| --- | --- |
| O=C(Nc1cccc2ncn(Cc3ccncc3F)c(=O)c12)c1cc(Cl)c(O)c(Cl)c1 [Example 13, 3,5-dichloro-N-(3-((3-fluoropyridin-4-yl)methyl)-4-oxo-3,4-dihydroquinazolin-5-yl)-4-hydroxybenzamide] | 500 to 1000 nM |
| O=C(Nc1cccc2ncn(Cc3cccc(OC(F)(F)F)c3)c(=O)c12)c1cc(Cl)c(O)c(Cl)n1 [Example 49, 4,6-dichloro-5-hydroxy-N-(4-oxo-3-(3-(trifluoromethoxy)benzyl)-3,4-dihydroquinazolin-5-yl)picolinamide] | 100 to 500 nM |
| O=C(NCc1ccccc1OC(F)(F)F)C1CCCCN1C(=O)c1cc(Cl)c(O)c(Cl)n1 (stereo not drawn) [Example 120, 1-(4,6-dichloro-5-hydroxypicolinoyl)-N-(2-(trifluoromethoxy)benzyl) piperidine-2-carboxamide] | 1000 to 10000 nM |
| O=C(Nc1nccc2ncn(Cc3ccccc3OC(F)(F)F)c(=O)c12)c1cc(Cl)c(O)c(Cl)c1 [Example 124, 3,5-dichloro-4-hydroxy-N-(4-oxo-3-(2-(trifluoromethoxy)benzyl)-3,4-dihydropyrido[4,3-d]pyrimidin-5-yl)benzamide] | 1000 to 10000 nM |
| Cn1nc(NC(=O)c2cc(Cl)c(O)c(Cl)c2)c2c(=O)n(Cc3ccccc3OC(F)(F)F)cnc21 [Example 118, 3,5-dichloro-4-hydroxy-N-(1-methyl-4-oxo-5-(2-(trifluoromethoxy)benzyl)-4,5-dihydro-1H-pyrazolo[3,4-d]pyrimidin-3-yl)benzamide] | 500 to 1000 nM |
| O=C(Nc1cccc2ncn(Cc3ccc(OC(F)(F)F)cc3)c(=O)c12)c1cc(Cl)c(O)c(Cl)c1 [Example 8, 3,5-dichloro-4-hydroxy-N-(4-oxo-3-(4-(trifluoromethoxy)benzyl)-3,4-dihydroquinazolin-5-yl)benzamide] | 100 to 500 nM |
| O=C(Nc1csc2ncn(Cc3ccccc3OC(F)(F)F)c(=O)c12)c1cc(Cl)c(O)c(Cl)c1 [Example 103, 3,5-dichloro-4-hydroxy-N-(4-oxo-3-(2-(trifluoromethoxy)benzyl)-3,4-dihydrothieno[2,3-d]pyrimidin-5-yl)benzamide] | 100 to 500 nM |
| O=C(Nc1cccc2ncn(Cc3cccnc3F)c(=O)c12)c1cc(Cl)c(O)c(Cl)c1 [Example 137, 3,5-dichloro-N-{3-[(2-fluoropyridin-3-yl)methyl]-4-oxo-3,4-dihydroquinazolin-5-yl}-4-hydroxybenzamide] | 100 to 500 nM |
| O=C(Nc1cccc2ncn(Cc3ccc(F)cc3)c(=O)c12)c1cc(Cl)c(O)c(Cl)c1 [Example 7, 3,5-dichloro-N-(3-(4-fluorobenzyl)-4-oxo-3,4-dihydroquinazolin-5-yl)-4-hydroxybenzamide] | 100 to 500 nM |
| Cc1ccc(NC(=O)c2cc(Cl)c(O)c(Cl)c2)c2c(=O)n(Cc3ccccc3OC(F)(F)F)c(CF)nc12 [Example 152, 3,5-dichloro-N-(2-(fluoromethyl)-8-methyl-4-oxo-3-(2-(trifluoromethoxy)benzyl)-3,4-dihydroquinazolin-5-yl)-4-hydroxybenzamide] | 500 to 1000 nM |
| CC(C)(C)CCn1cnc2cccc(NC(=O)c3cc(Cl)c(O)c(Cl)c3)c2c1=O [Example 57, 3,5-dichloro-N-(3-(3,3-dimethylbutyl)-4-oxo-3,4-dihydroquinazolin-5-yl)-4-hydroxybenzamide] | 100 to 500 nM |
| O=C(Nc1csc2ncn(Cc3ccccc3OC(F)(F)F)c(=O)c12)c1cc(Cl)c(O)c(Cl)n1 [Example 104, 4,6-dichloro-5-hydroxy-N-(4-oxo-3-(2-(trifluoromethoxy)benzyl)-3,4-dihydrothieno[2,3-d]pyrimidin-5-yl)picolinamide] | 100 to 500 nM |
| O=C(Nc1cccc2ncn(Cc3cccnc3Cl)c(=O)c12)c1cc(Cl)c(O)c(Cl)n1 [Example 129, 4,6-dichloro-N-{3-[(2-chloropyridin-3-yl)methyl]-4. oxo-3,4-dihydroquinazolin-5-yl}-5-hydroxypyridine-2-carboxamide] | 100 to 500 nM |
| O=C(Nc1sc(C(F)(F)F)nc1C(=O)NCc1ccccc1OC(F)(F)F)c1cc(Cl)c(O)c(Cl)c1 [Example 125, 5-(3,5-dichloro-4-hydroxybenzamido)-N-(2-(trifluoromethoxy)benzyl)-2-(trifluoromethyl)thiazole-4-carboxamide] | 100 to 500 nM |
| O=C(Nc1scnc1C(=O)NCc1cccc(C(F)(F)F)n1)c1cc(Cl)c(O)c(Cl)n1 [Example 193, 5-(4,6-dichloro-5-hydroxypicolinamido)-N-((6-(trifluoromethyl)pyridin-2-yl)methyl)thiazole-4-carboxamide] | 500 to 1000 nM |
| Cc1ccc(NC(=O)c2cc(Cl)c(O)c(Cl)n2)c2c(=O)n([C@@H]3CC[C@H]3c3ccccc3)c(C)nc12 [Example 202, 4,6-dichloro-N-(2,8-dimethyl-4-oxo-3-((1R,2S)-2-phenylcyclobutyl)-3,4-dihydroquinazolin-5-yl)-5-hydroxypicolinamide] | 100 to 500 nM |
| O=C(Nc1cccc2nc(C(F)(F)F)n(Cc3ccccc3OC(F)(F)F)c(=O)c12)c1cc(Cl)c(O)c(Cl)c1 [Example 70, 3,5-dichloro-4-hydroxy-N-(4-oxo-3-(2-(trifluoromethoxy)benzyl)-2-(trifluoromethyl)-3,4-dihydroquinazolin-5-yl)benzamide] | 100 to 500 nM |
| Cc1nsc(NC(=O)c2cc(Cl)c(O)c(Cl)n2)c1C(=O)N[C@@H](C)c1ccccc1F [Example 115, (S)-5-(4,6-dichloro-5-hydroxypicolinamido)-N-(1-(2-fluorophenyl)ethyl)-3-methylisothiazole-4-carboxamide] | 100 to 500 nM |
| O=C(Nc1cccc2ncn(Cc3cccnc3Cl)c(=O)c12)c1cc(Cl)c(O)c(Cl)c1 [Example 122, 3,5-dichloro-N-(3-((2-chloropyridin-3-yl)methyl)-4-oxo-3,4-dihydroquinazolin-5-yl)-4-hydroxybenzamide] | 100 to 500 nM |
| O=C(Nc1cccc2ncn([C@H]3CC[C@@H]3c3ccccc3)c(=O)c12)c1cc(Cl)c(O)c(Cl)c1 [Example 121, 3,5-dichloro-4-hydroxy-N-(4-oxo-3-((1S,2R)-2-phenylcyclobutyl)-3,4-dihydroquinazolin-5-yl)benzamide] | 100 to 500 nM |
| O=C(Nc1ncsc1C(=O)NCc1ccccc1C(F)(F)F)c1cc(Cl)c(O)c(Cl)c1 [Example 26, 4-(3,5-dichloro-4-hydroxybenzamido)-N-(2-(trifluoromethyl)benzyl)thiazole-5-carboxamide] | 100 to 500 nM |
| CC(C)(C)CCNC(=O)c1ccccc1NC(=O)c1cc(Cl)c(O)c(Cl)c1 [Example 71, 3,5-dichloro-N-(2-((3,3-dimethylbutyl)carbamoyl)phenyl)-4-hydroxybenzamide] | 100 to 500 nM |

Continued, values first:

| IC50 | Structure (SMILES) |
| --- | --- |
| 100 to 500 nM | Cc1ccc(NC(=O)c2cc(Cl)c(O)c(Cl)c2)c2c(=O)n(Cc3ncccc3F)c(C)nc12 [Example 183, 3,5-dichloro-N-(3-((3-fluoropyridin-2-yl)methyl)-2,8-dimethyl-4-oxo-3,4-dihydroquinazolin-5-yl)-4-hydroxybenzamide] |
| 100 to 500 nM | O=C(Nc1cccnc1C(=O)NCc1ccccc1OC(F)(F)F)c1cc(Cl)c(O)c(Cl)c1 [Example 69, 3-(3,5-dichloro-4-hydroxybenzamido)-N-(2-(trifluoromethoxy)benzyl) picolinamide] |
| ≤ 100 nM | O=C(Nc1cccc2ncn(Cc3ccc(C(F)(F)F)cc3)c(=O)c12)c1cc(Cl)c(O)c(Cl)c1 [Example 6, 3,5-dichloro-4-hydroxy-N-(4-oxo-3-(4-(trifluoromethyl)benzyl)-3,4-dihydroquinazolin-5-yl)benzamide] |
| ≤ 100 nM | C[C@@H](c1cccc(F)c1)n1cnc2cccc(NC(=O)c3cc(Cl)c(O)c(Cl)c3)c2c1=O [Example 12, (S)-3,5-dichloro-N-(3-(1-(3-fluorophenyl)ethyl)-4-oxo-3,4-dihydroquinazolin-5-yl)-4-hydroxybenzamide] |
| ≤ 100 nM | Cc1nc2c(F)ccc(NC(=O)c3cc(Cl)c(O)c(Cl)c3)c2c(=O)n1Cc1ccccc1OC(F)(F)F [Example 168, 3,5-dichloro-N-(8-fluoro-2-methyl-4-oxo-3-(2-(trifluoromethoxy)benzyl)-3,4-dihydroquinazolin-5-yl)-4-hydroxybenzamide] |
| ≤ 100 nM | Cc1nsc(NC(=O)c2cc(Cl)c(O)c(Cl)c2)c1C(=O)N[C@@H](C)c1ccccc1F [Example 126, (S)-5-(3,5-dichloro-4-hydroxybenzamido)-N-(1-(2-fluorophenyl)ethyl)-3-methylisothiazole-4-carboxamide] |
| ≤ 100 nM | Cc1nc2nccc(NC(=O)c3cc(Cl)c(O)c(Cl)c3)c2c(=O)n1Cc1ccccc1OC(F)(F)F [Example 96, 3,5-dichloro-4-hydroxy-N-(2-methyl-4-oxo-3-(2-(trifluoromethoxy)benzyl)-3,4-dihydropyrido[2,3-d]pyrimidin-5-yl)benzamide] |
| ≤ 100 nM | Cc1nc2c(F)ccc(NC(=O)c3cc(Cl)c(O)c(Cl)c3)c2c(=O)n1Cc1ccccc1C(F)(F)F [Example 158, 3,5-dichloro-N-(8-fluoro-2-methyl-4-oxo-3-(2-(trifluoromethyl)benzyl)-3,4-dihydroquinazolin-5-yl)-4-hydroxybenzamide] |
| ≤ 100 nM | N#Cc1ccccc1Cn1cnc2cccc(NC(=O)c3cc(Cl)c(O)c(Cl)c3)c2c1=O [Example 53, 3,5-dichloro-N-(3-(2-cyanobenzyl)-4-oxo-3,4-dihydroquinazolin-5-yl)-4-hydroxybenzamide] |
| ≤ 100 nM | O=C(Nc1cccc2ncn(Cc3ccccc3F)c(=O)c12)c1cc(Cl)c(O)c(Cl)n1 [Example 44, 4,6-dichloro-N-(3-(2-fluorobenzyl)-4-oxo-3,4-dihydroquinazolin-5-yl)-5-hydroxypicolinamide] |
| ≤ 100 nM | O=C(Nc1cccc2ncn(Cc3ncccc3Cl)c(=O)c12)c1cc(Cl)c(O)c(Cl)c1 [Example 143, 3,5-dichloro-N-(3-((3-chloropyridin-2-yl)methyl)-4-oxo-3,4-dihydroquinazolin-5-yl)-4-hydroxybenzamide] |
